Results reported in PMC11284790, “Targeting Myeloperoxidase Ameliorates Gouty Arthritis: A Virtual Screening Success Story” (Journal of Medicinal Chemistry, 2024).

Legend:
human neutrophils = experiment: MSU-induced NETosis assay (sytox green fluorescence microscopy); format: cell-based; conditions: 20 μM compound, MSU 250 μg/mL, 90 min
Description: NETosis assay was conducted on human neutrophils adhered to lysine-coated glass coverslips as previously reported.[80] After neutrophils’ adhesion, the compounds were diluted in RPMI medium (free of phenol red and fetal bovine serum) at a final concentration of 20 μM (0.15% DMSO) and added to the cells for 15 min at 37 °C in a 5% CO2 atmosphere. Then, MSU crystals (250 μg/mL), known to induce NETosis, were added. After 90 min incubation, the medium was carefully removed, paraformaldehyde was added (500 μL at 4%), and incubated at 4 °C overnight. In the following day, paraformaldehyde was removed, and cells were washed threefold with tris-HCl buffer (20 mM, pH 7.4) and kept into the same buffer at 4 °C. Tris-HCl buffer was carefully removed, and DNA was stained by adding 500 μL SYTOX Green (500 nM diluted in tris-HCl buffer). The system was kept for 30 min at room temperature, protected from light. After staining, the coverslips were mounted over the glass slides using ProLong Diamond Antifade Mountant fixation medium. Fluorescence images were acquired in an Axiovert 200 (Zeiss) fluorescence microscope with a 20x/0.4 objective and Zeiss Filter Set 09, λex = 450–490 nm, λem = above 515 nm. Images were taken by an Axiocam HR R3 camera device.

[1] = test system: PARP1 in RPE1-hTERT cells; experiment: PARP1 off-target assay: H2O2-induced ADP-ribosylation; format: cell-based; conditions: RL6 1, 10 and 50 μM; olaparib 10 μM; 600 μM H2O2 for 10 min
Description: After 1 h of pretreatment, the cells were treated with 600 μM H2O2 (Sigma) in PBS for 10 min at 37 °C. Cells were lysed in preheated Laemmli buffer devoid of beta-mercaptoethanol and bromophenol blue, and the lysates were boiled for 15 min. Protein concentration was determined using a BCA protein quantification kit (Pierce) and normalized. Beta-mercaptoethanol and bromophenol blue were then added, and the lysates were boiled again for 15 min. Proteins were separated in a 10% SDS-PAGE gel and then transferred to nitrocellulose membranes (Bio-Rad). […] Membranes were incubated with ECL Prime (Amersham), and the signals were detected using a Chemidoc MP Imaging System (Bio-Rad). […] Signals were quantified using ImageJ software.
(C) ADP-ribosylation in RPE1-hTERT cells was
triggered by H2O2 (600 µM) for 10 min. (D) Gel densitometry quantified by ImageJ
software, n=3. A concentration of 0.1% DMSO was used.

Human leukocyte MPO [2] = target: T1, Human leukocyte MPO (Homo sapiens, UniProt P05164); experiment: Reversibility test (residual peroxidase activity after 200-fold dilution); format: biochemical; parameters: Human leukocyte MPO (EC 1.7.1.11) was purchased from Planta Natural Products; purchased Planta Natural Products (Vienna, Austria); host or cells: human leukocytes; conditions: 100 nM MPO, 20 μM inhibitor, 30 min, then 200-fold dilution
T1 sequence (P05164 279-745 limits assumed): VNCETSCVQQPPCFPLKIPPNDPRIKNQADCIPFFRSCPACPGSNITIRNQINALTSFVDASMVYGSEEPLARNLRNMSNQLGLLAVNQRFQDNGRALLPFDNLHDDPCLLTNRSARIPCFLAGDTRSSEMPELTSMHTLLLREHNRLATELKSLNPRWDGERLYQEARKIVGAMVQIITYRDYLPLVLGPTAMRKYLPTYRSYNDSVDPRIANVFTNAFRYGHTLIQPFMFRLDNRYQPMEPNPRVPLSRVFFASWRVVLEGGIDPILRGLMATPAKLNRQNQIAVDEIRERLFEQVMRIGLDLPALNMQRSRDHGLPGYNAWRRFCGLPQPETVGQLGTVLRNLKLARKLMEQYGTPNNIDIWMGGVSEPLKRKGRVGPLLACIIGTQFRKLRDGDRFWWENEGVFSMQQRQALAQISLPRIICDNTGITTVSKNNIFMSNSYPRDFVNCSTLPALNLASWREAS
T1 sequence (P05164 165-278 limits assumed): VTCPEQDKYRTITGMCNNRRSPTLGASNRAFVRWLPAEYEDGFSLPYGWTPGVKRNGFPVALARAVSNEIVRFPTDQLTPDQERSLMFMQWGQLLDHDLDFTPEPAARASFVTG
Description: Reversibility of the inhibition was analyzed by peroxidase residual activity.[77] […] After incubation, the system was diluted 200-fold using acetate buffer ([…], pH 5.4) in the presence of TMB (2 mM dissolved in 10% dimethylformamide). After a new hydrogen peroxide addition (2 μM), the oxidation of TMB was quantified at 655 nm.

Human leukocyte MPO [3] = target: T1, Human leukocyte MPO; experiment: Oxidation of the compounds by MPO/H2O2 (intrinsic fluorescence decay); format: biochemical; parameters: Human leukocyte MPO (EC 1.7.1.11) was purchased from Planta Natural Products; purchased Planta Natural Products (Vienna, Austria); host or cells: human leukocytes; conditions: 1 μM compound; for compound oxidation by MPO/H2O2 in the presence of chloride (fluorescence) / compound oxidation by MPO/H2O2 in the absence of chloride (fluorescence): 10 nM MPO; for compound oxidation by MPO/H2O2 in the presence of chloride (fluorescence): 40 μM H2O2, 140 mM NaCl; for compound oxidation by MPO/H2O2 in the absence of chloride (fluorescence): 40 μM H2O2, no chloride
Description: Changes in the absorption and fluorescence spectra of RL6 and RL7 were determined by incubating 1 μM compounds in 0.3% DMSO and phosphate buffer (20 mM, pH 7.4) with or without MPO (10 nM), diethylenetriaminepentaacetic acid (100 μM), taurine (5 mM), cetyltrimethylammonium chloride (0.03%), and NaCl (140 mM). In the chloride-free system, NaCl and taurine were omitted, and cetyltrimethylammonium chloride was replaced by cetyltrimethylammonium bisulfate. The reaction was performed in the absence or presence of Tyr (50 μM) and was started by adding 40 μM hydrogen peroxide. RL6 and RL7 consumption was monitored by fluorescence at λex = 413/λem = 603 nm for RL6 or λex = 306/λem = 603 nm for RL7 in a microplate reader.

[4] = Stopped-flow reaction of compound with HOCl (fluorescence decay); conditions: 20 μM compound, 250 μM HOCl, up to 1 s
Description: The fast oxidation of RL7 was monitored in a stopped-flow spectrophotometer (Applied Photophysics SX20) using the intrinsic RL7 fluorescence (λex = 306 nm and λem = above 340 nm). The reaction of RL7 (20 μM in 0.3% DMSO) with HOCl (250 μM) was performed in phosphate buffer (20 mM, pH 7.4), diethylenetriaminepentaacetic acid (100 μM), and NaCl (140 mM). Data were obtained within 1 s.

SMILES	inhibition of MSU-induced NETosis (human neutrophils)	inhibition of H2O2-induced ADP-ribosylation [1]	reversibility of MPO inhibition (residual peroxidase activity) (Human leukocyte MPO [2])	compound oxidation by MPO/H2O2 in the presence of chloride (fluorescence) (Human leukocyte MPO [3])	compound oxidation by MPO/H2O2 in the absence of chloride (fluorescence) (Human leukocyte MPO [3])	compound oxidation by MPO/H2O2 in the presence of tyrosine (fluorescence) (Human leukocyte MPO [3]; 50 μM tyrosine)	reaction with HOCl (fluorescence decay) [4]
Nc1cc2c3c(cccc3c1)C(=O)N(N)C2=O [RL6]	strongly inhibited	failed to inhibit	reversible inhibition	did not undergo any alteration	did not undergo any alteration	No oxidation occurred	–
CN1CCc2nc3sc(C(=O)Nc4cccc(C#N)c4)c(N)c3cc2C1 [RL7]	to a lesser extent	–	–	further consumed in the full reaction system in the presence of chloride	not further enhanced by hydrogen peroxide/MPO	–	rapidly reacts with HOCl
